In patent publication US12661355B2, “Compounds and methods for inducing UCP1 expression” (The Regents of the University of California, priority 2020, dated 2026):

Key:
[1] = molecular target: T1, AKAP1 (Mus musculus, UniProt O08715); assay: Drug Affinity Responsive Target Stability (DARTS) in BAT or brown adipocyte extracts, AKAP1; assay type: binding; conditions: mouse brown adipocyte extracts, 1 h, 20 μM (CL316,243 20 nM)
T1 construct: from tissue; host or cells: mouse brown adipose tissue (BAT) lysate; also mouse brown adipocyte extracts
T1 sequence (O08715 30-857): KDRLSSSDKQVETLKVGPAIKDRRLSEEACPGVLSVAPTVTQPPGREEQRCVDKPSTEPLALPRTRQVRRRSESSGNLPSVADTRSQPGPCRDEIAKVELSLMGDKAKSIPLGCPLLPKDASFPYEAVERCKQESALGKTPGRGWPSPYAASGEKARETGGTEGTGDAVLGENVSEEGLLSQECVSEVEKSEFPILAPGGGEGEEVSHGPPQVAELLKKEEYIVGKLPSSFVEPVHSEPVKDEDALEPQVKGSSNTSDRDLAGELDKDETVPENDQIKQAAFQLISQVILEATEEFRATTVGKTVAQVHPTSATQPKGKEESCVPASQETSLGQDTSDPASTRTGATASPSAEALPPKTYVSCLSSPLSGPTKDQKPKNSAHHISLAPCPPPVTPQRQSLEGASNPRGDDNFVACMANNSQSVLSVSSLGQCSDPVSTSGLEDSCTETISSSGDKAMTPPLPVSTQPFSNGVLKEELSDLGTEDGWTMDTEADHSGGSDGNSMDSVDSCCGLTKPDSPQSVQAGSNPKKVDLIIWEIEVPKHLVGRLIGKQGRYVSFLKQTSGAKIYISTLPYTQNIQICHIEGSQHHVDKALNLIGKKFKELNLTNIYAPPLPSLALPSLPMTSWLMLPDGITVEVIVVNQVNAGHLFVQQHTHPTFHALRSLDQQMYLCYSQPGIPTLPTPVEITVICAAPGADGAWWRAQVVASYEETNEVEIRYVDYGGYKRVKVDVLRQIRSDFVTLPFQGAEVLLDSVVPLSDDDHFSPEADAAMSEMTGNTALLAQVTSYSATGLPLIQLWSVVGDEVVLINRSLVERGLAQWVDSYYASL
Experimental: […] assays were performed according to known methods. Briefly, BAT or cells within a 10 cm dish were lysed with 600 μl M-PER buffer containing protease and phosphatase inhibitors. Debris was pelleted by centrifugation at 18,000 g for 10 min at 4° C., and the lysates were harvested and supplemented with TNC buffer (50 mM Tris-HCl, 50 mM NaCl, 10 mM CaCl2). The lysates were split into two tubes and treated with either vehicle or 20 μM Z160 for 1 h at room temperature. For experiment with BAT, 100 μg of lysate was incubated with different Z160 concentrations. Different concentrations of pronase (from 1:100 to 1:10,000 dilution from a 1.25 mg/ml pronase stock) were incubated with the samples for 30 min at room temperature and the reaction was stopped with SDS loading buffer followed immediately by heating at 70° C. for 10 min. Protein lysates were separated by SDS-PAGE and transferred to a nitrocellulose membrane. After blocking in 5% milk, 0.1% Tween-20 in Tris-buffered saline (TBS), primary antibody was incubated overnight at 4° C. in 5% bovine serum albumin and 0.1% Tween-20 in TBS. Primary antibodies against AKAP1 (5203, Cell Signaling), AKAP13 (39715, One World Lab), GAPDH (GTX100118, Genetex), OPA1 (39557, One World Lab), PKA C-α (4782, Cell Signaling), PKA RII-β (ab75993, Abcam), were used at 1:2000. A goat anti-rabbit secondary antibody (sc-2030, Santa Cruz Biotechnology, Inc) was used at a 1:10,000 dilution for 1 h at room temperature in 5% milk and 0.1% Tween-20 in TBS.
The PKA tetramer consists of two catalytic and two regulatory subunits. In the mouse, these are catalytic subunits C-α and C-β, and regulatory subunits RI and RII, each with α and β isoforms (RI-α, RI-β, RII-α, RII-β). PKA is also bound to a family of anchoring proteins, A-kinase anchoring proteins (AKAPs), which allow the compartmentalization of cAMP signaling. To investigate whether Z160 binds PKA complex proteins, two techniques were applied both of which rely on ligand-induced alterations in protein stability: Cellular Thermal Shift Assay (CETSA) and Drug Affinity Responsive Target Stability (DARTS). CETSA is based on the principle that ligand binding will change the temperature at which a protein starts to unfold and aggregate, while DARTS relies on the protection of a protein from proteolysis upon specific binding to a small molecule.
To provide further evidence for an interaction between Z160 and AKAP1, DARTS assays were employed. Lysates from brown fat were treated with different Z160 concentrations for 1 h followed by pronase digestion and immunoblotting. […] The effect of Z160 on AKAP1 was confirmed using mouse brown adipocyte extracts (FIG. 15A).

[2] = tested on: Ucp1; assay: Gene expression by qPCR in immortalized brown adipocytes; assay type: cell-based, mouse; conditions: for effect of antagonist on induction of Ucp1 mRNA by Z160: 20 μM antagonist 1 h prior to and during overnight 10 μM Z160
Experimental: Primary brown adipocytes were isolated according to known methods. An established mouse brown adipocyte cell line was obtained from Dr. Bruce Spiegelman (Dana-Farber Cancer Institute, Boston, USA). To differentiate primary and immortalized brown adipocytes, cells were grown until confluency in DMEM containing 10% FBS, 25 mM glucose 1 mM pyruvate, 2 mM glutamine, 20 nM insulin, 1 nM T3, and antibiotics. Once confluent (day 0), differentiation was induced by supplementing the medium with 0.5 mM IBMX, 0.5 μM dexamethasone, and 0.125 mM indomethacin, for 2 days. Differentiation was continued in the original medium (without IBMX, dexamethasone and indomethacin) for 7-10 days.
TScreening was conducted at the UCLA Molecular Screening Shared Resource using automated instruments Immortalized brown adipocytes were differentiated in T225 flasks and plated in Matrix 384-well plates (26,000 cells per well) with white flat bottom (ThermoScientific) using trypsin and collagenase type II (Sigma C6885). The small molecule libraries screened were a BioMol library (204 compounds), an FDA-approved drug library (1120 compounds), a Microsource spectrum collection (2000 compounds), and a druggable compound set (8000 compounds). Molecules were delivered at 10 μM final concentration in DMSO. The screen was performed in duplicate on different days. After 18 h, luciferase activity was measured with Bright-Glo luciferase assay system and an LJL instrument. Data were normalized to the basal response (100% activity) in the presence of DMSO. Following the primary screen, 92 molecules were selected for validation and used to treat brown adipocyte cells plated in a 96-well plate overnight. RNA was extracted with an SV 96 Total RNA Isolation System (Promega). Compounds used for follow-up studies were identified using search tools available from Molport (molport.com), and ordered from the same company.
(§1) RNA levels were measured by qPCR according to known methods. Briefly, RNA was extracted with TRIzol (Invitrogen) and reverse transcribed with iScript (Bio-Rad). Real-time PCR analysis was performed with a CFX Connect (Bio-Rad).
Mouse RNA levels were measured by qPCR according to known methods. Data were normalized to B2m and Tbp reference genes. Human RNA was extracted using an RNA Mini Plus kit (Zymo) and gene expression determined by Taqman assay. The 1-step qPCR was run on a QuantStudio 12K Flex Real Time PCR System (ThermoFisher) using the following protocol: 50° C. for 5 minutes, 95° C. for 20 seconds, 40 cycles of 95° C. for 15 seconds and 60° C. for 60 seconds. Data were normalized to PPIA and PSMB2 reference genes. For global gene expression analysis, RNA isolated from brown adipocytes treated with compounds as indicated (four biological replicates) was hybridized to Illumina mouse Ref 8 V2.0 bead chips at the University of California, Los Angeles Neuroscience Genomics Core as previously described. Data were processed with GenomeStudio V2011.1 using the quantile normalization, background subtraction, and a present call of P<0.05.

[3] = tested on: PKA; assay: PKA activity ELISA, cell or tissue lysates treated 30 min; assay type: biochemical, mouse; conditions: cell lysates, 500 μM H-89 10 min, then 50 μM Z160 30 min
Experimental: PKA kinase activity was measured with an ELISA that utilized a synthetic peptide as substrate for PKA and a polyclonal antibody that recognizes the phosphorylated form of the substrate (ab139435, Abcam). PKA activity was measured in lysates from cultured brown adipocytes, mouse BAT, or liver. Cells and tissues were lysed in 20 mM MOPS, 5 mM EGTA, 2 mM EDTA, and 0.1% Triton X-100 supplemented with protease and phosphatase inhibitor as described above. Protein concentration was determined by Bradford assay and 10 μg of cells, 0.25 μg of BAT extract, or 0.5 μg of liver extract were assessed for PKA activation according to the manufacturer's instruction, with minor changes. Briefly, vehicle or Z160 was incubated with brown adipocyte cells overnight or with protein lysates for 30 min, followed by one wash before the primary antibody, 60 min incubation with the primary antibody, 30 min incubation with the secondary antibody, and by 10 min washing. Absorbance was measured after the substrate was added for 20-60 min, depending the intensity of the signal.

[4] = tested on: NRVM; assay: Respirometry (reserve capacity) in neonatal rat ventricular myocytes; assay type: cell-based; conditions: 48 h 100 μM isoproterenol followed by 24 h rest
Experimental: (§2) Rat H9c2 cells were grown in DMEM supplemented with 10% FBS, 25 mM glucose, 1 mM pyruvate, and 2 mM glutamine Neonatal rat ventricular myocytes (NRVM) were isolated and cultured as previously described. Briefly, 2-4 day old rats were sacrificed and myocytes and fibroblasts were isolated and separated using a Percoll density gradient. Following isolation, NRVMs were plated on gelatin-coated plates in DMEM containing 10% FBS, 25 mM glucose, 1 mM pyruvate, and 2 mM glutamine The next day, FBS was replaced by 1× insulin-transferrin-selenium supplement and the cells were treated with vehicle or 10 μM Z160 for 2 days, with or without 60 μM isoproterenol or 50 μM phenylephrine.
NRVM were seeded in a Seahorse Bioscience XF96 plate and cultured for 48 h in 10% FBS. Next, cells were treated with 100 μM ISO for 48 h, followed by 24 h of 10 μM Z160. Oxygen consumption rate (OCR) was recorded in a Seahorse Bioscience XF96 analyzer before and after the sequential injection of 0.75 μM oligomycin, 0.75 μm FCCP and 0.75 μM rotenone/myxothiazol. Reserve capacity was calculated as the difference between basal respiration and FCCP response.

[5] = tested on: NRVM; assay: Hypertrophic gene expression in neonatal rat ventricular myocytes; assay type: cell-based; conditions: agonist alone, 48 h
Experimental: as §2, §1

C[C@H](Cc1ccc2c(c1)OC(C(=O)[O-])(C(=O)[O-])O2)NC[C@H](O)c1cccc(Cl)c1.[Na+].[Na+] [CL316,243, reference compound]
effect on AKAP1 (pronase susceptibility) [1]: not observed

O=S(=O)(NCCNC/C=C/c1ccc(Br)cc1)c1cccc2cnccc12 [H-89, reference compound]
effect of antagonist on Z160 enhancement of Cidea and Elovl3 expression ([2]; 20 μM H-89 1 h prior to and during overnight 10 μM Z160): blunted
effect of antagonist on induction of Ucp1 mRNA by Z160 [2]: blocked the effect of Z160
PKA activity and Z160 response after pre-incubation with PKA antagonist [3]: reduced the PKA activity and negated the Z160 response

Oc1ccc(-c2nc(-c3ccncc3)c(-c3ccc(F)cc3)[nH]2)cc1 [SB202190, reference compound]
effect of antagonist on induction of Ucp1 mRNA by Z160 [2]: blocked the effect of Z160

CC(C)NCC(O)c1ccc(O)c(O)c1 (stereo not drawn) [isoproterenol]
reserve capacity of mitochondrial respiration [4]: decreased the reserve capacity
expression of Nppa and Nppb [5]: induced the expression
expression of Pln [5]: reduced expression
expression of Nppa and Nppb ([5]; listed as ISO): increase
expression of Pln ([5]; listed as ISO): decreasing

CNC[C@H](O)c1cccc(O)c1 [phenylephrine]
expression of Nppa and Nppb [5]: induced the expression
expression of Pln [5]: reduced expression
expression of Nppa and Nppb ([5]; listed as PE): increase
expression of Pln ([5]; listed as PE): decreasing

c1ccc(CC2=NCCN2)cc1 [tolazoline, reference compound]
effect of antagonist on induction of Ucp1 mRNA by Z160 [2]: did not prevent
